A value given as a limit tells only on which side of the number the result lay.

The test system of assay [1] is monosodium urate crystal-induced inflammatory response. Nature of the assay: rat air pouch model of crystal-induced arthropathy. It counts as in vivo, Sprague-Dawley rats. As to conditions: PO 10, 30, 100 mg/kg; 150 mg MSU; FIGS. 4 and 5. On the procedure: • 1. […] NaOH was added as required to maintain pH between 8-9. The solution was filtered and incubated at ambient with slow stirring continuously for 24 hours. • b. Crystals were washed, dried and sterilized by autoclaving. • c. Crystals were suspended in sterile saline at 0.67 mg/ml, 2.67 mg/ml and 10 mg/ml just prior to use. • 2. 110 Sprague-Dawley rats (male, 160-180 g) were obtained. Following quarantine, rats were accepted for the Study if no signs of clinical distress were noted during the 3-day quarantine period. The rats were maintained on certified laboratory diet and water ad libitum. • 3. The rats were ear-notched for individual identification. • 4. The rat weights were recorded. • 5. […] Exudates volume was measured and recorded for each animal. • a. […] Plasma extravasation was measured by optical absorbance at 620 nm for each exudate sample. • 14. […] Mean cell counts and standard deviations were determined for each group. • b. Mean optical absorbance measurements and standard deviations were determined for each group. • c. Group means and standard deviations for TNF-alpha and IL-1 were determined for each group. • d. Statistical significance of treatments on mean cell counts, mean optical absorbance measurements and mean cytokine measurements were determined by comparison of means for treatment and positive control groups with vehicle group.

In a further assay the test system is IL-1. Nature of the assay: IL-1 release/production after stimulation (FIG. 1, FIG. 3). The following applies: FIG. 1.

In the case of `O=C([O-])CSc1nnc(Br)n1-c1ccc(C2CC2)c2ccccc12.[Na+]` [compound 1, 2-(5-Bromo-4-(4-cyclopropylnaphthalen-1-yl)-4H-1,2,4-triazol-3-ylthio)acetate sodium salt], the “monosodium urate crystal-induced inflammatory response” value in assay [1] is recorded as “blocked”. Besides, the “blocks IL-1 release, time after stimulation” value in the assay with IL-1 was at most 1 h.

The record behind these values is US9216179B2, “Treatment of gout and hyperuricemia” (ARDEA BIOSCIENCES, INC., priority 2010, dated 2015).
